Reference: ChEMBL document CHEMBL1137187, “Isoindolinone ureas: a novel class of KDR kinase inhibitors” (Bioorg Med Chem Lett, 2004)

The molecules below were run on NIH3T3 (assay: inhibitory activity of the Compound against NIH3T3 Cell lines). Settings: Mus musculus.
Type: functional, cell-based

Compared with `Cc1cccc(NC(=O)Nc2ccc(-c3cccc4c3CNC4=O)cc2)c1`, `O=C(Nc1ccc(-c2cccc3c2CNC3=O)cc1)Nc1cccc(C(F)(F)F)c1` is 4.2-fold lower in IC50: 270 nM for the first, 65 nM for the second. The second is the more potent here.

Going from `O=C(Nc1ccc(-c2cccc3c2CNC3=O)cc1)Nc1cc(C(F)(F)F)ccc1F` to `Cc1cccc(NC(=O)Nc2ccc(-c3cccc4c3CNC4=O)cc2Cl)c1`, the IC50 falls from 150 nM to 99 nM (1.5-fold).

Compared with `Cc1cccc(NC(=O)Nc2ccc(-c3ccc(NC(=O)c4cccnc4)c4c3CNC4=O)cc2)c1`, `COc1ccc(-c2ccc(NC(=O)Nc3cccc(C)c3)cc2)c2c1C(=O)NC2` is 15-fold higher in IC50: 11 nM for the first, 170 nM for the second.

Molecule `Cc1cccc(NC(=O)Nc2ccc(-c3cccc4c3CNC4=O)cc2C)c1` has an IC50 of 68 nM.

What follows are molecules tested against Vascular endothelial growth factor receptor 2 (Homo sapiens, UniProt P35968) (assay: Inhibition of Vascular endothelial growth factor receptor 2 (KDR)). Settings: not given.
Sequence of Vascular endothelial growth factor receptor 2 (P35968 whole entry): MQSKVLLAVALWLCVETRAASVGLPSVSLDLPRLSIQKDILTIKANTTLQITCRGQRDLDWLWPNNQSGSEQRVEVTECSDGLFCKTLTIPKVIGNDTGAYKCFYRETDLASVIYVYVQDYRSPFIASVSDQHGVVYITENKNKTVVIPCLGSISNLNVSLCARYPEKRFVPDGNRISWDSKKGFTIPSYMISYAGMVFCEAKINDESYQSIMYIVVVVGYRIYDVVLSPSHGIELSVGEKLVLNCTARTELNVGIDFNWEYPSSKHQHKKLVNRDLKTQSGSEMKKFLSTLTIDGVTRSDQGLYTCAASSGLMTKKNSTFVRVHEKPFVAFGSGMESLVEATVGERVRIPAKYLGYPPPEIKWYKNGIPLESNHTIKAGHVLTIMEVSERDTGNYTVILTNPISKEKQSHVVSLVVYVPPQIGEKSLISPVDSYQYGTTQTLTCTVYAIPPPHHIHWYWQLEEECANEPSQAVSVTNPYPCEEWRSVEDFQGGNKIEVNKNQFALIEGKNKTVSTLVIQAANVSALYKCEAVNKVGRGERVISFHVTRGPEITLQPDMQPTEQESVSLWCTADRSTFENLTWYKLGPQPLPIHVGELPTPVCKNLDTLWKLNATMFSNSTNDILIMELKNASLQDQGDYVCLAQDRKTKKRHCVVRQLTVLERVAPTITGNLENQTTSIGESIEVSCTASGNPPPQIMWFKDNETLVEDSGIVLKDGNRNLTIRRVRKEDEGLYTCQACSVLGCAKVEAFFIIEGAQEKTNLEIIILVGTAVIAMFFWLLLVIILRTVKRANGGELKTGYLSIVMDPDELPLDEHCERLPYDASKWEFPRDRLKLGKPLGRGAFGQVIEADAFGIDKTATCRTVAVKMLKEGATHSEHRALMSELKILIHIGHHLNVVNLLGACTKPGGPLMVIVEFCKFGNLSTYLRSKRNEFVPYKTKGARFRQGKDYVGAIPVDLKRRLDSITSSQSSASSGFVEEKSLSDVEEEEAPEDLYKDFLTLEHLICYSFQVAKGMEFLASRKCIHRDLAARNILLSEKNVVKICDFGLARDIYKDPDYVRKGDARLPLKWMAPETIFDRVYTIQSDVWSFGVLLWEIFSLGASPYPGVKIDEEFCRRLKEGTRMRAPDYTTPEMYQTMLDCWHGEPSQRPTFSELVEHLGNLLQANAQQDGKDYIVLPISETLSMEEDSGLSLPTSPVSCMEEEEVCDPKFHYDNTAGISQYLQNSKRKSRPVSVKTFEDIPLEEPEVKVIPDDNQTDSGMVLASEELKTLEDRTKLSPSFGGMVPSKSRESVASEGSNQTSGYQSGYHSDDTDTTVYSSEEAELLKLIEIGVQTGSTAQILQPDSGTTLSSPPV

Compared with `O=C(Nc1ccccc1)Nc1ccc(-c2cccc3c2CNC3=O)cc1`, `O=C(Nc1ccc(-c2cccc3c2CNC3=O)cc1)c1ccccc1` is higher in IC50: 1800 nM for the first, > 50000 nM for the second. The first is the more potent here.

Going from `Cc1ccccc1NC(=O)Nc1ccc(-c2cccc3c2CNC3=O)cc1` to `Cc1ccc(NC(=O)Nc2ccc(-c3cccc4c3CNC4=O)cc2)cc1`, the IC50 falls from 4400 nM to 430 nM (10-fold).

`O=C(Nc1ccc(-c2cccc3c2CNC3=O)cc1)Nc1ccc2c(c1)CCC2` and `O=C(Nc1ccc(-c2cccc3c2CNC3=O)cc1)Nc1cccc(Cl)c1` are within 1.5-fold of each other in IC50: 39 nM for the first, 46 nM for the second.

First: O=C(Nc1ccc(-c2cccc3c2CNC3=O)cc1)Nc1cc(C(F)(F)F)ccc1F
Second: O=C(Nc1ccc(-c2cccc3c2CNC3=O)cc1)Nc1cccc(C(F)(F)F)c1
The IC50 of the first is 3.3-fold higher: 23 nM for the first, 7 nM for the second.

Compared with `Cc1cccc(NC(=O)N(C)c2ccc(-c3cccc4c3CNC4=O)cc2)c1`, `Cc1cccc(N(C)C(=O)Nc2ccc(-c3cccc4c3CNC4=O)cc2)c1` is 17-fold higher in IC50: 1100 nM for the first, 19000 nM for the second. The first is the more potent here.

Compared with `Cc1cccc(NC(=O)Nc2ccc(-c3cccc4c3CNC4=O)c(C)c2)c1`, `Cc1cccc(NC(=O)Nc2ccc(-c3cccc4c3CNC4=O)c(Cl)c2)c1` is 11-fold lower in IC50: 770 nM for the first, 71 nM for the second. The second is the more potent here.

Compared with `Cc1cccc(NC(=O)Nc2ccc(-c3ccc(NC(=O)c4cccnc4)c4c3CNC4=O)cc2)c1`, `Cc1cccc(NC(=O)Nc2ccc(-c3ccc(NC(=O)c4ccccc4)c4c3CNC4=O)cc2)c1` is 47-fold higher in IC50: 10 nM for the first, 470 nM for the second.

Compared with `CC(=O)Nc1ccc(-c2ccc(NC(=O)Nc3cccc(C)c3)cc2)c2c1C(=O)NC2`, `Cc1cccc(NC(=O)Nc2ccc(-c3ccc(NC(=O)CN(C)C)c4c3CNC4=O)cc2)c1` is 5.5-fold higher in IC50: 64 nM for the first, 350 nM for the second.

First: COc1ccc(-c2ccc(NC(=O)Nc3cccc(C)c3)cc2)c2c1C(=O)NC2
Second: COCCOc1ccc(-c2ccc(NC(=O)Nc3cccc(C)c3)cc2)c2c1C(=O)NC2
The IC50 of the first is 6-fold lower: 21 nM for the first, 126 nM for the second.

Compared with `CCc1cc(-c2cccc3c2CNC3=O)ccc1NC(=O)Nc1cccc(C)c1`, `Cc1cccc(NC(=O)Nc2ccc(-c3cccc4c3CNC4=O)cc2Cl)c1` is 200-fold lower in IC50: 6000 nM for the first, 30 nM for the second. The second is the more potent here.

Going from `O=C1NCc2c1cccc2-c1ccc(NS(=O)(=O)c2ccccc2)cc1` to `O=C(Nc1ccc(-c2cccc3c2CNC3=O)cc1)Nc1cccc(F)c1`, the IC50 falls from > 50000 nM to 520 nM. The second is the more potent here.

`Cc1cccc(NC(=O)Nc2ccc(-c3cccc4c3CNC4=O)cc2C(F)(F)F)c1` and `Cc1cccc(NC(=O)Nc2ccc(-c3cccc4c3CNC4=O)cc2F)c1` are within 1.5-fold of each other in IC50: 34 nM for the first, 44 nM for the second.

Compared with `CCc1cccc(NC(=O)Nc2ccc(-c3cccc4c3CNC4=O)cc2)c1`, `COc1cccc(NC(=O)Nc2ccc(-c3cccc4c3CNC4=O)cc2)c1` is 20-fold higher in IC50: 29 nM for the first, 570 nM for the second.

First: N#Cc1cccc(NC(=O)Nc2ccc(-c3cccc4c3CNC4=O)cc2)c1
Second: Cc1cccc(NC(=S)Nc2ccc(-c3cccc4c3CNC4=O)cc2)c1
The IC50 of the first is 27-fold lower: 370 nM for the first, 10000 nM for the second.

First: Cc1cccc(CC(=O)Nc2ccc(-c3cccc4c3CNC4=O)cc2)c1
Second: Cc1cccc(NC(=O)Cc2ccc(-c3cccc4c3CNC4=O)cc2)c1
The IC50 of the first is higher: > 50000 nM for the first, 2100 nM for the second. The second is the more potent here.

First: O=C(Nc1ccc(-c2cccc3c2CNC3=O)cc1)Nc1ccc(C(F)(F)F)cc1
Second: Cc1cc(C)cc(NC(=O)Nc2ccc(-c3cccc4c3CNC4=O)cc2)c1
The IC50 of the first is 1.9-fold higher: 161 nM for the first, 83 nM for the second. The second is the more potent here.

First: Cc1cccc(NC(=O)Nc2ccc(-c3cccc4c3CNC4=O)c(F)c2)c1
Second: Cc1cccc(NC(=O)Nc2ccc(-c3cccc4c3CNC4=O)c(C(F)(F)F)c2)c1
The IC50 of the first is 170-fold lower: 52 nM for the first, 9000 nM for the second. The first is the more potent here.

Compared with `Cc1cccc(NC(=O)Nc2ccc(-c3ccc(N)c4c3CNC4=O)cc2)c1`, `Cc1cccc(NC(=O)Nc2c(C)cc(-c3cccc4c3CNC4=O)cc2C)c1` is higher in IC50: 14 nM for the first, > 50000 nM for the second. The first is the more potent here.

First: CC(C)OCc1ccc2c(c1)c1c3c(c4c(c1n2CCCCC(=O)N(C)C)Cc1ccccc1-4)C(=O)NC3
Second: COc1cc(-c2nn([C@H]3CC[C@H](N4CCN(C)CC4)CC3)c3ncnc(N)c23)ccc1NC(=O)c1ccccc1
The IC50 of the first is lower: 18 nM for the first, > 50 nM for the second. The first is the more potent here.
